According to patent US8426359B2, “Inhibitors of serine proteases, particularly HCV NS3-NS4A protease” (Vertex Pharmaceuticals Incorporated, priority 2003, dated 2013):
Where two headings read alike, the source gives them in different places.

Assays:
[1] = tested on: Cells containing hepatitis C virus (HCV) replicon; assay: HCV replicon cell assay; assay type: cell-based
Experimental: HCV Replicon Cell Assay Protocol:
Cells containing hepatitis C virus (HCV) replicon were maintained in DMEM containing 10% fetal bovine serum (FBS), 0.25 mg per ml of G418, with appropriate supplements (media A).
On day 1, replicon cell monolayer was treated with a trypsin: EDTA mixture, removed, and then media A was diluted into a final concentration of 100,000 cells per ml wit. 10,000 cells in 100 ul were plated into each well of a 96-well tissue culture plate, and cultured overnight in a tissue culture incubator at 37° C.
On day 2, compounds (in 100% DMSO) were serially diluted into DMEM containing 2% FBS, 0.5% DMSO, with appropriate supplements (media B). The final concentration of DMSO was maintained at 0.5% throughout the dilution series.
Media on the replicon cell monolayer was removed, and then media B containing various concentrations of compounds was added. Media B without any compound was added to other wells as no compound controls.
Cells were incubated with compound or 0.5% DMSO in media B for 48 hours in a tissue culture incubator at 37° C. At the end of the 48-hour incubation, the media was removed, and the replicon cell monolayer was washed once with PBS and stored at −80° C. prior to RNA extraction.
Culture plates with treated replicon cell monolayers were thawed, and a fixed amount of another RNA virus, such as Bovine Viral Diarrhea Virus (BVDV) was added to cells in each well. RNA extraction reagents (such as reagents from RNeasy kits) were added to the cells immediately to avoid degradation of RNA. Total RNA was extracted according the instruction of manufacturer with modification to improve extraction efficiency and consistency. Finally, total cellular RNA, including HCV replicon RNA, was eluted and stored at −80° C. until further processing.
A Taqman real-time RT-PCR quantification assay was set up with two sets of specific primers and probe. One was for HCV and the other was for BVDV. Total RNA extractants from treated HCV replicon cells was added to the PCR reactions for quantification of both HCV and BVDV RNA in the same PCR well. Experimental failure was flagged and rejected based on the level of BVDV RNA in each well. The level of HCV RNA in each well was calculated according to a standard curve run in the same PCR plate. The percentage of inhibition or decrease of HCV RNA level due to compound treatment was calculated using the DMSO or no compound control as 0% of inhibition. The IC50 (concentration at which 50% inhibition of HCV RNA level is observed) was calculated from the titration curve of any given compound.

[2] = molecular target: T1, HCV NS3-NS4A protease (Hepatitis C virus genotype 1a, UniProt P27958); assay: HCV enzyme assay (HPLC microbore separation of 5AB substrate and products); assay type: biochemical
T1 construct: The buffer, KK4A, DTT, and tNS3 were combined
T1 sequence (P27958 1027-1208): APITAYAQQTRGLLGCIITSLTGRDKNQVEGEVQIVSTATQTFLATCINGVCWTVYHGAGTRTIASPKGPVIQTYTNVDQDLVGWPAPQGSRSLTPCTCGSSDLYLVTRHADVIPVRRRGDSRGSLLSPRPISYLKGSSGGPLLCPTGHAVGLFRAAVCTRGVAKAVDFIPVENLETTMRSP
Experimental: HCV Enzyme Assay Protocol
HPLC Microbore Method for Separation of 5AB Substrate and Products
• NH2-Glu-Asp-Val-Val-(alpha)Abu-Cys-Ser-Met-Ser-Tyr-COOH
A stock solution of 20 mM 5AB (or concentration of your choice) was made in DMSO w/0.2M DTT. This was stored in aliquots at −20 C.
Buffer: 50 mM HEPES, pH 7.8; 20% glycerol; 100 mM NaCl
Total assay volume was 100 μL
The buffer, KK4A, DTT, and tNS3 were combined; distributed 78 μL each into wells of 96 well plate. This was incubated at 30 C for ˜5-10 min.
2.5 μL of appropriate concentration of test compound was dissolved in DMSO (DMSO only for control) and added to each well. This was incubated at room temperature for 15 min.
Incubated for 20 min at 30 C.
Terminated reaction by addition of 25 μL of 10% TFA
Transferred 120 μL aliquots to HPLC vials
Separated SMSY product from substrate and KK4A by the following method:
Microbore Separation Method:
Instrumentation: Agilent 1100
• Degasser G1322A • Binary pump G1312A • Autosampler G1313A • Column thermostated chamber G1316A • Diode array detector G1315A Column: • Phenomenex Jupiter; 5 micron C18; 300 angstroms; 150×2 mm; P/O 00F-4053-B0 • Column thermostat: 40 C • Injection volume: 100 μL • Solvent A=HPLC grade water+0.1% TFA • Solvent B=HPLC grade acetonitrile+0.1% TFA
• Stop time: 17 min • Post-run time: 10 min.

[3] = 50% inhibition of HCV RNA level, 48-hour incubation, Taqman real-time RT-PCR, read-out: IC50

Compound | IC50 ([1]; 48 h) | Ki ([2]; 25 nM tNS3, 25 μM KK4A, 25 μM 5AB substrate, 20 min at 30 C, read-out: Ki) | IC50 [1, 3] | Ki [2]
CCC[C@H](NC(=O)[C@@H]1CC2CCCCC2N1C(=O)[C@@H](NC(=O)[C@@H](NC(=O)C(=O)Nc1ccccc1)C1CCCCC1)C(C)(C)C)C(=O)C(=O)NC1CC1 (stereo partly drawn) [Compound 1] | 250 to 1000 nM | 100 to 250 nM | – | –
CCC[C@H](NC(=O)[C@@H]1C[C@@H]2CCCC[C@@H]2N1C(=O)[C@@H](NC(=O)[C@@H](NC(=O)C(=O)NCc1ccccc1)C1CCCCC1)C(C)(C)C)C(=O)C(=O)NC1CC1 [Compound 2] | – | – | 250 to 1000 nM | 100 to 250 nM
CCC[C@H](NC(=O)[C@@H]1C[C@@H]2CCCC[C@@H]2N1C(=O)[C@@H](NC(=O)[C@@H](NC(=O)C(=O)NCC1CCCCC1)C1CCCCC1)C(C)(C)C)C(=O)C(=O)NC1CC1 [Compound 3] | – | – | 250 to 1000 nM | 100 to 250 nM
CCC[C@H](NC(=O)[C@@H]1C[C@@H]2CCCC[C@@H]2N1C(=O)[C@@H](NC(=O)[C@@H](NC(=O)C(=O)NC1CC1)C1CCCCC1)C(C)(C)C)C(=O)C(=O)NC1CC1 [Compound 4] | – | – | 250 to 1000 nM | 100 to 250 nM
CCC[C@H](NC(=O)[C@@H]1C[C@@H]2CCCC[C@@H]2N1C(=O)[C@@H](NC(=O)[C@@H](NC(=O)C(=O)NC(C)C)C1CCCCC1)C(C)(C)C)C(=O)C(=O)NC1CC1 [Compound 5] | – | – | 250 to 1000 nM | 100 to 250 nM
CCC[C@H](NC(=O)[C@@H]1C[C@@H]2CCCC[C@@H]2N1C(=O)[C@@H](NC(=O)[C@@H](NC(=O)C(=O)NCC(C)C)C1CCCCC1)C(C)(C)C)C(=O)C(=O)NC1CC1 [Compound 6] | – | – | 250 to 1000 nM | 100 to 250 nM
CCC[C@H](NC(=O)[C@@H]1C[C@@H]2CCCC[C@@H]2N1C(=O)[C@@H](NC(=O)[C@@H](NC(=O)C(=O)Nc1cc(C)on1)C1CCCCC1)C(C)(C)C)C(=O)C(=O)NC1CC1 [Compound 7] | – | – | 250 to 1000 nM | 100 to 250 nM
CCC[C@H](NC(=O)[C@@H]1C[C@@H]2CCCC[C@@H]2N1C(=O)[C@@H](NC(=O)[C@@H](NC(=O)C(=O)NC1CCCCC1)C1CCCCC1)C(C)(C)C)C(=O)C(=O)NC1CC1 [Compound 8] | – | – | 250 to 1000 nM | 100 to 250 nM
CCC[C@H](NC(=O)[C@@H]1C[C@@H]2CCCC[C@@H]2N1C(=O)[C@@H](NC(=O)[C@@H](NC(=O)C(=O)NC1CCCC1)C1CCCCC1)C(C)(C)C)C(=O)C(=O)NC1CC1 [Compound 9] | – | – | 250 to 1000 nM | 250 to 1000 nM
CCC[C@H](NC(=O)C1C[C@@H](Oc2ccc(Cl)cn2)CN1C(=O)[C@@H](NC(=O)[C@@H](NC(=O)C(=O)NC1CC1)C1CCCCC1)C(C)(C)C)C(=O)C(=O)NC1CC1 (stereo partly drawn) [Compound 10] | – | – | < 100 nM | 100 to 250 nM
CCC[C@H](NC(=O)[C@@H]1C[C@@H](Oc2ccc(Cl)cn2)CN1C(=O)[C@@H](NC(=O)[C@@H](NC(=O)C(=O)NCc1ccccc1)C1CCCCC1)C(C)(C)C)C(=O)C(=O)NC1CC1 [Compound 11] | – | – | < 100 nM | 100 to 250 nM
CCC[C@H](NC(=O)[C@@H]1C[C@@H](Oc2ccc(Cl)cn2)CN1C(=O)[C@@H](NC(=O)[C@@H](NC(=O)C(=O)NCC(C)C)C1CCCCC1)C(C)(C)C)C(=O)C(=O)NC1CC1 [Compound 12] | – | – | < 100 nM | 100 to 250 nM
